According to publication PMC9851200, “Multiparameter phenotypic screening for endogenous TFEB and TFE3 translocation identifies novel chemical series modulating lysosome function” (Autophagy, 2022):
Read-outs that look alike come from different tables or passages of the source.

Columns and labels:
endogenous TFEB = assay: TFEB nuclear translocation, immunocytochemistry high-content imaging; format: cell-based
endogenous TFE3 = assay: TFE3 nuclear translocation, immunocytochemistry high-content imaging; format: cell-based
SH-SY5Y cells [1] = system: SH-SY5Y cells; also: reference of the scale not given here
SH-SY5Y cells [2] = assay: AK (adenylate kinase) release ToxiLight cytotoxicity assay; also: reference of the scale not given here
SH-SY5Y cells [3] = assay: Nuclear count from microscopy images (cellular growth and toxicity); also: reference of the scale not given here
[4] = PKIS2 primary screening, DQ Red BSA intensity
[5] = PKIS2 primary screening, DQ Red BSA spot count

Compound | TFEB % (endogenous TFEB; PKIS2 primary screening) [%] | TFE3 % (endogenous TFE3; PKIS2 primary screening) [%] | DQ Intensity (SH-SY5Y cells [1]; PKIS2 primary screening) | DQ Spot (SH-SY5Y cells [1]; PKIS2 primary screening) | AK (SH-SY5Y cells [2]; PKIS2 primary screening) | Nuclear Count (SH-SY5Y cells [3]; PKIS2 primary screening) | DQ Intensity (SH-SY5Y cells [1]; [4]) | DQ Spot (SH-SY5Y cells [1]; [5]) | TFEB % (endogenous TFEB; PKIS2 primary screen) [%] | TFE3 % (endogenous TFE3; PKIS2 primary screen) [%] | DQ Intensity (SH-SY5Y cells [1]; PKIS2 primary screen, DQ Red BSA intensity) | DQ Spot (SH-SY5Y cells [1]; PKIS2 primary screen, DQ Red BSA spot count) | AK (SH-SY5Y cells [2]; PKIS2 primary screen) | Nuclear Count (SH-SY5Y cells [3]; PKIS2 primary screen)
C[C@@H](Oc1cc(-n2cnc3cc(-c4ccncc4)ccc32)sc1C(N)=O)c1ccccc1Cl [UNC10225262A] | 9.74 | 14.34 | 208.10 | 109.28 | 125.08 | 39.15 | – | – | – | – | – | – | – | –
CN(c1ccc(NC(=O)Nc2cccc(Cl)c2)cc1)c1ccnc(N)n1 [GW830707] | 11.00 | 9.81 | – | – | 94.92 | 115.77 | 86.00 | 87.81 | – | – | – | – | – | –
COc1cccc(-n2cnc3c(N)ncnc32)c1 [UNC10225454A] | 7.17 | 8.30 | 95.23 | 104.69 | 83.60 | 128.34 | – | – | – | – | – | – | – | –
Cc1ccc(Nc2ccnc(Nc3ccc4c(c3)CS(=O)(=O)C4)n2)cc1O [GW579362] | 7.59 | 18.94 | – | – | 117.18 | 72.17 | 160.36 | 117.73 | – | – | – | – | – | –
CC(C)N1CCC(n2cnc(-c3ccc(F)cc3)c2-c2ccnc(N)n2)CC1 [UNC10225258A] | 5.04 | 12.02 | 110.79 | 99.41 | 107.69 | 83.47 | – | – | – | – | – | – | – | –
Cc1ccc(NC(=O)Nc2ccc(Cl)c(C(F)(F)F)c2)cc1-c1ccc(C(=O)Nc2ccncc2)cc1 [UNC10225359A] | 9.28 | 18.34 | 70.67 | 82.92 | 88.88 | 100.74 | – | – | – | – | – | – | – | –
COc1cccc(NC(=O)NCCNc2ccnc(Nc3ccc(F)cc3)n2)c1 [GSK1379879] | 4.69 | 16.07 | – | – | 80.56 | 93.19 | 127.01 | 112.84 | – | – | – | – | – | –
O=C(Nc1cccc(-c2nn3ncccc3c2-c2ccnc(Nc3ccccc3)n2)c1)c1c(F)cccc1F [UNC10225232A] | 3.87 | 11.89 | 89.13 | 101.26 | 143.10 | 127.09 | – | – | – | – | – | – | – | –
CCN(CC)CCOc1ccc(Nc2ncc3cc(-c4c(Cl)cccc4Cl)c(=O)n(C)c3n2)cc1 [UNC10225459A] | – | – | – | – | – | – | – | – | 22.54 | 18.27 | 115.72 | 64.83 | 131.29 | 26.96
CN(c1ccc2c(c1)nc(NCc1ccc(F)cc1)n2C)c1ccnc(Nc2ccc(CS(C)(=O)=O)cc2)n1 [GW813244] | 4.30 | 13.77 | – | – | 87.46 | 104.49 | 93.66 | 106.18 | – | – | – | – | – | –
Oc1ccc2ncnc(Nc3ccc(OCc4ccccc4)cc3)c2c1 [UNC10225360A] | 5.47 | 13.64 | – | – | 98.47 | 101.58 | 120.31 | 114.21 | – | – | – | – | – | –
O=C(NCCNc1ccnc(Nc2ccc(F)cc2)n1)c1cc2ccccc2s1 [GSK1379874] | 5.88 | 18.78 | – | – | 71.16 | 89.16 | 94.35 | 110.46 | – | – | – | – | – | –
CCOc1nccc(-c2c(-c3ccc(F)cc3)ncn2C2CCNCC2)n1 [UNC10225194A] | 5.88 | 13.41 | 81.72 | 85.28 | 122.01 | 127.90 | – | – | – | – | – | – | – | –
Cc1ccc(C)c(NC(=O)NCCNc2ccnc(Nc3ccc(F)cc3)n2)c1 [GSK1379878] | 8.11 | 7.01 | – | – | 103.06 | 85.48 | 136.83 | 104.85 | – | – | – | – | – | –
COc1cc(Nc2nccc(-c3c(-c4cccc(NC(=O)c5c(F)cccc5F)c4)nn4ncccc34)n2)cc(OC)c1OC [UNC10225433A] | 23.04 | 17.61 | 122.13 | 59.34 | 102.19 | 35.61 | – | – | – | – | – | – | – | –
Cc1c(Cn2c(C)nn3c(=O)cc(N4CCO[C@H](C)C4)nc23)cccc1C(F)(F)F [UNC10225403A] | 3.43 | 10.58 | 146.49 | 116.83 | 91.29 | 94.79 | – | – | – | – | – | – | – | –
CSc1nn2c(=O)cc(N3CCOCC3)nc2n1Cc1cccc(C(F)(F)F)c1C [UNC10243881A] | 6.63 | 9.67 | 80.81 | 106.13 | 100.35 | 93.06 | – | – | – | – | – | – | – | –
COc1ccc(Nc2nccc(N3CCC(NC(=O)C(C)c4ccc(Cl)cc4)CC3)n2)cc1 (stereo not drawn) [GSK1379812] | 5.92 | 16.53 | – | – | 91.65 | 97.15 | 134.37 | 89.99 | – | – | – | – | – | –
CSc1nccc(-c2c(-c3ccc(F)cc3)ncn2CCCN2CCOCC2)n1.Cl [UNC10225426A] | 11.69 | 5.71 | 91.90 | 91.96 | 81.99 | 113.07 | – | – | – | – | – | – | – | –
COc1cccc(CNC(=O)NC2CCN(c3ccnc(Nc4ccc(F)cc4)n3)C2)c1 (stereo not drawn) [GSK1379723] | 8.63 | 22.56 | – | – | 98.00 | 83.60 | 104.41 | 106.33 | – | – | – | – | – | –
